Laboratory results: patent US20040142971A1, “BENZOTHIOPHENE COMPOUNDS HAVING ANTIINFECTIVE ACTIVITY” (GeneSoft, Inc., priority 2001, published 2004)

Legend:
Assay in all cases: MIC, NCCLS broth microdilution
[1] = system: S. aureus ATCC 13709 (methicillin sensitive strain, MSSA); assay type: cell-based, Staphylococcus aureus; settings: C = S. aureus ATCC 13709
Source text: (§1) In vitro biological activity data were collected for a variety of microorganisms, including Bacillus cereus (ATCC 11778), Staphylococcus aureus (ATCC 27660 (a methicillin resistant strain (MRSA), ATCC 33591 and ATCC 43300); ATCC 13709, a methicillin sensitive strain (MSSA)); Streptococcus pneumoniae (ATCC 51422, a penicillin resistant strain (PRSP)), Enterococcus faecium (ATCC 51559, a vancomycin resistant strain (VRE)), and Staphylococcus epidermidis (ATCC 700586, a methycillin resistant strain (MRSE)). Additionally, antifungal activity data were collected for Candida albicans (ATCC 38247). Minimal inhibition concentrations (MIC's) were determined using the National Committee for Clinical Laboratory Standards (NCCLS) broth microdilution assay in microtiter plates, as set forth in: (1) the guidelines of the National Committee for Clinical Laboratory Standards (NCCLS) Document M7-A4 (NCCLS, 1997); (2) the guidelines of the National Committee for Clinical Laboratory Standards (NCCLS) Document M11-A4 (NCCLS, 1997); and (3) the guidelines and reference method of the National Committee for Clinical Laboratory Standards (NCCLS) Document M27-T (NCCLS, 1995). For antifungal essays, the method recommended in Murray, PR., 1995 Manual of Clinical Microbiology (ASM Press, Washington, D.C.), was employed.

[2] = system: S. aureus ATCC 27660 (methicillin resistant strain, MRSA); assay type: cell-based, Staphylococcus aureus; settings: D = S. aureus ATCC 27660
Source text: as §1

S. aureus ATCC 33591 = assay type: cell-based, Staphylococcus aureus; settings: E = S. aureus ATCC 33591
Source text: as §1

B. Cereus ATCC 11778 = assay type: cell-based, Bacillus cereus; settings: A = B. Cereus ATCC 11778
Source text: as §1

[3] = system: S. epidermidis ATCC 700586 (methycillin resistant strain, MRSE); assay type: cell-based, Staphylococcus epidermidis; settings: G = S. epidermidis ATCC 700586
Source text: as §1

[4] = system: E. faecium ATCC 51559 (vancomycin resistant strain, VRE); assay type: cell-based, Enterococcus faecium; settings: B = E. faecium ATCC 51559
Source text: as §1

Minimum Inhibitory Concentration (MIC) [3] | Minimum Inhibitory Concentration (MIC) [4] | SMILES | Minimum Inhibitory Concentration (MIC) [1] | Minimum Inhibitory Concentration (MIC) [2] | Minimum Inhibitory Concentration (MIC) (S. aureus ATCC 33591) | Minimum Inhibitory Concentration (MIC) (B. Cereus ATCC 11778)
– | – | Cn1cc(NC(=O)c2cc(NC(=O)c3cc(NC(=O)c4sc5ccccc5c4Cl)cn3C)cn2C)cc1C(=O)NCC[N+]1(C)CCOCC1 [Ib-20b] | +++ (+++ = MIC ≦ 4) | +++ (+++ = MIC ≦ 4) | +++ (+++ = MIC ≦ 4) | +++ (+++ = MIC ≦ 4)
– | – | Cn1cc(NC(=O)c2cc(NC(=O)c3cc(NC(=O)c4cc5ccccc5cn4)c[nH]3)cn2C)cc1C(=O)NCCN1CCC(F)(F)CC1 [Ib-78] | +++ (+++ = MIC ≦ 4) | +++ (+++ = MIC ≦ 4) | +++ (+++ = MIC ≦ 4) | +++ (+++ = MIC ≦ 4)
– | – | Cn1cc(NC(=O)c2cc3ccccc3cn2)cc1C(=O)Nc1cc(C(=O)Nc2ccc3sc(C(=O)NCCN4CCOCC4)cc3c2)n(C)c1 [Id-1] | – | – | – | >32 µg/mL
– | – | Cn1cc(NC(=O)c2cc(NC(=O)c3cc(NC(=O)c4sc5cc6c(cc5c4Cl)OCO6)cn3C)cn2C)cc1C(=O)NCCN1CCCCC1 [Ib-20l] | +++ (+++ = MIC ≦ 4) | +++ (+++ = MIC ≦ 4) | +++ (+++ = MIC ≦ 4) | +++ (+++ = MIC ≦ 4)
– | – | Cn1cc(NC(=O)c2cc(NC(=O)c3sc4ccccc4c3Cl)cn2C)cc1C(=O)NCCN1CCC(O)CC1 [Ib-20a] | +++ (+++ = MIC ≦ 4) | +++ (+++ = MIC ≦ 4) | – | +++ (+++ = MIC ≦ 4)
– | – | Cn1cc(NC(=O)c2cc3ccccc3cn2)cc1C(=O)Nc1cc(C(=O)Nc2cn(C)c(C(=O)NCCN3CCOCC3)n2)n(C)c1 [Ib-58] | +++ (+++ = MIC ≦ 4) | +++ (+++ = MIC ≦ 4) | +++ (+++ = MIC ≦ 4) | +++ (+++ = MIC ≦ 4)
– | – | CCN(CC)CCNC(=O)c1cc(NC(=O)c2cc(NC(=O)c3cc(NC(=O)c4sc5cc6c(cc5c4Cl)OCO6)cn3C)cn2C)cn1C [Ib-20h] | +++ (+++ = MIC ≦ 4) | +++ (+++ = MIC ≦ 4) | +++ (+++ = MIC ≦ 4) | +++ (+++ = MIC ≦ 4)
– | – | Cn1cc(NC(=O)c2cc(NC(=O)c3cc(NC(=O)c4cc5cc6c(cc5s4)OCO6)cn3C)cn2C)cc1C(=O)NCCN1CCOCC1 [Ib-20v] | +++ (+++ = MIC ≦ 4) | +++ (+++ = MIC ≦ 4) | +++ (+++ = MIC ≦ 4) | +++ (+++ = MIC ≦ 4)
– | – | CN(C)c1ccc2c(Cl)c(C(=O)Nc3cc(C(=O)Nc4cc(C(=O)Nc5cc(C(=O)NCCN6CCOCC6)n(C)c5)n(C)c4)n(C)c3)sc2c1 [Ib-20k] | +++ (+++ = MIC ≦ 4) | +++ (+++ = MIC ≦ 4) | – | >32 µg/mL
– | – | Cn1cc(NC(=O)c2cc(NC(=O)c3cc(NC(=O)c4sc5cc6c(cc5c4Cl)OCO6)cn3C)cn2C)cc1C(=O)NCCN1CCSCC1 [Ib-20i] | +++ (+++ = MIC ≦ 4) | +++ (+++ = MIC ≦ 4) | – | +++ (+++ = MIC ≦ 4)
– | – | Cn1cc(NC(=O)c2sc3cc4c(cc3c2Cl)OCO4)cc1C(=O)NCCN1CCOCC1 [Ib-20f] | +++ (+++ = MIC ≦ 4) | +++ (+++ = MIC ≦ 4) | +++ (+++ = MIC ≦ 4) | +++ (+++ = MIC ≦ 4)
– | – | Cn1cc(NC(=O)c2cc(NC(=O)c3cc4cc5c(cc4s3)OCO5)cn2C)cc1C(=O)NCCN1CCOCC1 [Ib-20u] | +++ (+++ = MIC ≦ 4) | +++ (+++ = MIC ≦ 4) | +++ (+++ = MIC ≦ 4) | +++ (+++ = MIC ≦ 4)
– | – | Cn1cc(NC(=O)c2cc(NC(=O)c3cc(NC(=O)c4sc5cc([N+](=O)[O-])ccc5c4Cl)cn3C)cn2C)cc1C(=O)NCCN1CCOCC1 [Ib-20j] | +++ (+++ = MIC ≦ 4) | +++ (+++ = MIC ≦ 4) | +++ (+++ = MIC ≦ 4) | +++ (+++ = MIC ≦ 4)
+++ (+++ = MIC ≦ 4) | +++ (+++ = MIC ≦ 4) | Cn1cc(NC(=O)c2cc(NC(=O)c3cc(NC(=O)c4cc5ccccc5cn4)c[nH]3)cn2C)cc1C(=O)NCCc1ccncc1 [Ib-76] | +++ (+++ = MIC ≦ 4) | +++ (+++ = MIC ≦ 4) | +++ (+++ = MIC ≦ 4) | +++ (+++ = MIC ≦ 4)
– | – | Cn1cc(NC(=O)c2cc3ccccc3cn2)cc1C(=O)Nc1cc(C(=O)Nc2cc(C(=O)NCCN3CCOCC3)ns2)n(C)c1 [Ib-52] | +++ (+++ = MIC ≦ 4) | ++ (++ = MIC between 4 and 12) | – | +++ (+++ = MIC ≦ 4)
– | – | Cn1cc(NC(=O)c2cc3cc4c(cc3s2)OCO4)cc1C(=O)NCCN1CCOCC1 [Ib-20t] | +++ (+++ = MIC ≦ 4) | +++ (+++ = MIC ≦ 4) | +++ (+++ = MIC ≦ 4) | +++ (+++ = MIC ≦ 4)
– | – | CCN(CC)CCNC(=O)c1cc(NC(=O)c2cc(NC(=O)c3cc(NC(=O)c4cc5ccccc5cn4)cn3C)cn2C)sn1 [Ib-53] | ++ (++ = MIC between 4 and 12) | + (+ = MIC from 12 to 32, inclusive) | – | ++ (++ = MIC between 4 and 12)
– | – | Cn1cc(NC(=O)c2cc(NC(=O)c3cc(NC(=O)c4cc5ccccc5cn4)cs3)cn2C)cc1C(=O)NCCN1CCOCC1 [Ib-51] | +++ (+++ = MIC ≦ 4) | +++ (+++ = MIC ≦ 4) | – | +++ (+++ = MIC ≦ 4)
– | – | Cc1ccc2c(Cl)c(C(=O)Nc3cc(C(=O)Nc4cc(C(=O)Nc5cc(C(=O)NCCN6CCOCC6)n(C)c5)n(C)c4)n(C)c3)sc2c1 [Ib-20c] | +++ (+++ = MIC ≦ 4) | +++ (+++ = MIC ≦ 4) | +++ (+++ = MIC ≦ 4) | +++ (+++ = MIC ≦ 4)
– | – | Cn1cc(NC(=O)c2sc3cc4c(cc3c2Cl)OCO4)cc1C(=O)NCCN1CCCCC1 [Ib-20n] | +++ (+++ = MIC ≦ 4) | +++ (+++ = MIC ≦ 4) | +++ (+++ = MIC ≦ 4) | +++ (+++ = MIC ≦ 4)
– | – | Cn1cc(NC(=O)c2sc3cc4c(cc3c2Cl)OCO4)cc1C(=O)NCCN1CCC(F)(F)CC1 [Ib-20q] | +++ (+++ = MIC ≦ 4) | +++ (+++ = MIC ≦ 4) | +++ (+++ = MIC ≦ 4) | >32 µg/mL
– | – | Cn1cc(NC(=O)c2cc3cc4c(cc3s2)OCO4)cc1C(=O)NCCN1CCCC1 [Ib-20x] | +++ (+++ = MIC ≦ 4) | +++ (+++ = MIC ≦ 4) | +++ (+++ = MIC ≦ 4) | +++ (+++ = MIC ≦ 4)
– | – | Cn1cc(NC(=O)c2cc3cc4c(cc3s2)OCO4)cc1C(=O)NCCN1CCSCC1 [Ib-20w] | +++ (+++ = MIC ≦ 4) | +++ (+++ = MIC ≦ 4) | +++ (+++ = MIC ≦ 4) | +++ (+++ = MIC ≦ 4)
– | – | CN(C)CCSCCn1cc(NC(=O)c2cc3ccccc3cn2)cc1C(=O)Nc1cc(C(=O)Nc2ccc3cnccc3c2)n(C)c1 [Ib-73] | +++ (+++ = MIC ≦ 4) | +++ (+++ = MIC ≦ 4) | +++ (+++ = MIC ≦ 4) | +++ (+++ = MIC ≦ 4)
– | – | Cn1cc(NC(=O)c2cc(NC(=O)c3cc(NC(=O)c4cc5ccccc5cn4)cn3C)cn2CCN2CCOCC2)cc1C(=O)NCCN1CCOCC1 [Ib-57] | +++ (+++ = MIC ≦ 4) | +++ (+++ = MIC ≦ 4) | +++ (+++ = MIC ≦ 4) | +++ (+++ = MIC ≦ 4)
– | – | Cn1cc(NC(=O)c2cc3ccccc3cn2)cc1C(=O)Nc1cc(C(=O)Nc2c[nH]c(C(=O)NCCN3CCSCC3)c2)n(C)c1 [Ib-54] | + (+ = MIC from 12 to 32, inclusive) | + (+ = MIC from 12 to 32, inclusive) | – | ++ (++ = MIC between 4 and 12)
